For one test, the system named is HEK293 cells. Description: Cell binding assay of TAMRA-conjugated octreotide variants on HEK293 cells (flow cytometry). Set-up: species or system human. Conditions: neat TAMRA versus fluorescence marked octreotide 1, Fig. S-24. How it is done: (§1) In order to check whether the modifications on the octreotide have an influence on its interaction with somatostatin receptors in living cells, a binding study on different human cell lines was performed. For the detection of the bound peptides, octreotide and the derivatives were further modified by attaching the fluorophore TAMRA to the N terminus. To prevent the fluorophore from interacting with the binding site of octreotide derivatives, a 4,7,10-trioxa-1,13-tridecanediamine succinate (TTDS) spacer was added between the peptide N terminus and the N-hydroxy succinimide (NHS)-activated fluorophore. Both, the linker and the fluorophore, were attached to the peptides by manual SPPS (Fig. 5).
(§2) Human lung cancer cells A549 and human embryonic kidney cells HEK293 were utilized for the binding studies. A549 are widely used in binding studies with somatostatin analogues[61],[62]. […]
(§3) A549 cells (DSMZ ACC 107) and HEK293 cell s (DSMZ ACC 308) were cultured in complete growth medium consisting of Dulbecco’s MEM with 10 % fetal bovine serum (FBS) and 1x penicillin/streptomycin. […] After incubation, the cells were washed three times with ice -cold PBS-F. Using a CytoFlexS flow cytometer, PE -fluorescence was measured. […]
In general terms: Flow cytometry measures light scatter and fluorescence of single cells or particles in a stream.

The next test relates to A549 cells. Description: Cell binding assay of TAMRA-conjugated octreotide variants on A549 cells (flow cytometry). Set-up: species or system human. Conditions: neat TAMRA versus fluorescence marked octreotide 1, Fig. S-23. Here is the method:
as §1, §2, §3

“Also recorded” adds a separate entry of the source.

The source of these data is PMC10115808, “Parahydrogen-induced polarization allows 2000-fold signal enhancement in biologically active derivatives of the peptide-based drug octreotide” (Scientific Reports, 2023).

As to TAMRA, the “Binding efficiency (fluorescence) of TAMRA alone compared to TAMRA-linker-octreotide” value in the test with HEK293 cells and in the test with A549 cells was “about half the fluorescence; also recorded: about two times reduced binding efficiency” each time.
